Data as given in patent US8883698B2, “Compositions comprising a near terminal-branched compound and methods of making the same” (The Procter & Gamble Co, priority 2010, dated 2014).

Experiment: Dynamic Interfacial Tension analysis (Kruss DVT30 Drop Volume Tensiometer), ascending canola oil drop in aqueous surfactant phase
Assay type: physicochemical
Conditions: 6 gpg water hardness; 15° C.
Protocol: The Dynamic Interfacial Tension analysis was performed on a Kruss® DVT30 Drop Volume Tensiometer. The instrument is configured to measure the interfacial tension of an ascending oil drop in aqueous detergent (surfactant) phase. The oil was canola oil. The aqueous detergent and oil phases are temperature controlled via a Polyscience® circulating water temperature controller attached to tensiometer. A dynamic interfacial tension curve is generated by dispensing the oil drops into the aqueous detergent phase from an ascending capillary with diameter of 0.2540 mm over a range of flow rates and measuring the interfacial tension at each flow rate. Data is generated at oil dispensing flow rates of 500 uL/min-1 uL/min with 2 flow rates per decade on a logarithmic scale (7 flow rates measured). Interfacial tension is measured on three oil drops per flow rate, then averaged. Interfacial tension is reported in units of mN/m. Surface age of the oil drops at each flow rate is also recorded and plots can be generated either of interfacial tension (y-axis) versus oil flow rate (x-axis) or interfacial tension (y-axis) versus oil drop surface age (x-axis).

Substance: 13-Methyltetradecylsulfate
- precipitation observed during interfacial tension measurement: NM (precipitated)
